Experimental data as given in patent publication US4058523A, “Bis(benzamido)-benzene derivatives” (Chugai Seiyaku Kabushiki Kaisha, priority 1974, dated 1977).
Counter-ions that a name gives are not always drawn.

How the values were obtained:
[1] = tested on: stress-induced ulcer formation; assay: Inhibitory action on stress-induced ulcer formation; type: in vivo, Sprague-Dawley strain male rats; settings: oral, rats; for Number of Ulcers/Stomach, 3 mm or larger / Number of Ulcers/Stomach, up to 3 mm: 10 minutes before stress; for Ulcer Index (mean value ± standard deviation): Ulcer Index = a + b/10, Control 6.1 ± 2.3; for inhibition in vivo at 100 mg/kg: Rattus norvegicus, 16 h, stress-induced ulcer, read-out: Percent Inhibition
Protocol: Action on stress-induced ulcer formation
Sprague-Dawley strain male rats weighing 200-250 g were deprived of food for 24 hours, and then laid down on their backs on a screen and fixed by fastening their limbs with a strand. The fixed rats were submerged in water bath to the depth of ensiform process with their hind legs dipped first. Sixteen hours after the submergence, the rats were brought out from the bath and their stomachs were taken out. After light fixation with a 1% formalin aqueous solution, the stomach of each animal was cut open along their greater curvature and gastric mucosa was observed through a dissecting microscope. The ulcer was evaluated on an ulcer index calculated from the following equation: […]
wherein a is the number of big ulcers more than 3 mm in diameter and b is the number of small ulcers up to 3 mm in diameter.
A test compound was orally administered as a suspension in a 1% gum arabic aqueous solution, 10 minutes before exposure to stress.

Acute toxicity in mice = settings: mouse, in vivo
Protocol: Acute toxicity of 1-(3'-dimethylaminopropoxy)-2,4-bis(2"-methylbenzamido)-benzene, 1-(3'-dimethylaminopropoxy)-2,4-bis(3"-methylbenzamido)-benzene, 1-[N-(3-dimethylaminopropyl)-carbamoyl]-2,4-bis(2"-methylbenzamido)-benzene and 1-[N-(3'-dimethylaminopropyl)-carbamoyl]-2,4-bis(3"-methylbenzamido)-benzene were observed by the use of ddY strain male mice (5 weeks old) which were administered orally or intravenously with one of the compounds.
In the case of intravenous administration, the hydrochloride of test compound was dissolved in a physiological saline solution and administered by injecting into a vein of the tail. LD50 was determined by the "Up and Down" method.
When the administration was effected orally, the test compound was suspended in a 1% gum arabic aqueous solution and the suspension was administered orally by gavage. LD50 was determined by the Litchfield and Wilcoxon method or Miller and Tainter method based on death rate of each group of […] 10 days after the administration of the compound.

[2] = tested on: pylorus ligature ulcer formation; assay: Protective action on pylorus ligature ulcer formation; type: in vivo, Sprague-Dawley strain male rats; settings: in the duodenum, rats; for Percent Death Rate / Percent Perforating Ulcers: 16 hours after pylorus ligature
Protocol: Protective Action on pylorus ligature ulcer formation
The pylorus of Sprague-Dawley strain male rats weighing 150-200 g that had abstained from food, but not water for 48 hours was ligatured under ether anethsia. Each rat was allowed to stand individually in a cage for 16 hours without food and water. At the end of this term, the rats were sacrificed by an overdose of diethyl ether. The stomach was taken out of each animal and the gastric mucosa was observed by the use of a dissecting microscope.
Ulcers observed in the gastric mucosa were evaluated on a scale of from 0 to 5 defined as follows.
0: No lesion was observed.
1: Hemorrhage and/or erosion were observed.
2: One to five small ulcers less than 3 mm in diameter were observed.
3: Six or more small ulcers and/or a large ulcer more than 3 mm in diameter were observed.
4: Two or more large ulcers were observed.
5: At least one perforating ulcer was observed.
A test compound was administered as an aqueous solution in an equivalent molar of hydrochloric acid in the duodenum immediately after the pylorus ligature.

[3] = iv, hydrochloride in physiological saline, Up and Down Method
[4] = oral, 1% gum arabic suspension, 10 days, Litchfield and Wilcoxon Method

SMILES | Number of Ulcers/Stomach, 3 mm or larger ([1]; 100 mg/kg) | Number of Ulcers/Stomach, up to 3 mm ([1]; 100 mg/kg) | Ulcer Index (mean value ± standard deviation) ([1]; 100 mg/kg) | inhibition in vivo at 100 mg/kg ([1]; 100 mg/kg) [%] | further results
CCN(CC)CCNC(=O)c1ccc(NC(=O)c2ccccc2C)cc1NC(=O)c1ccccc1C [1-[N-(2'-diethylaminoethyl)-carbamoyl]-2,4-bis(2"-methylbenzamido)-benzene] | 1.2 | 29 | 4.2 ± 0.4 | 38 | –
CCN(CC)CCCOc1ccc(NC(=O)c2cccc(C)c2)cc1NC(=O)c1cccc(C)c1 [1-(3'-diethylaminopropoxy)-2,4-bis(3"-methylbenzamido)-benzene] | 0.3 | 6 | 0.8 ± 1.0 | 87 | –
Cc1cccc(C(=O)Nc2ccc(C(=O)NCCCN(C)C)c(NC(=O)c3cccc(C)c3)c2)c1 [1-[N-(3'-dimethylaminopropyl)-carbamoyl]-2,4-bis(3"-methylbenzamido)-benzene] | – | 17 | – | – | LD50 (Acute toxicity in mice; [3]): 88 mg/kg; LD50 (Acute toxicity in mice; oral, 1% gum arabic suspension, 10 days, Miller and Tainter Method): 5100 mg/kg; Percent Death Rate ([2]; 200 mg/kg): 0%; Percent Perforating Ulcers ([2]; 200 mg/kg): 0%
Cc1cccc(C(=O)Nc2ccc(OCCCCN(C)C)c(NC(=O)c3cccc(C)c3)c2)c1 [1-(4'-dimethylaminobutoxy)-2,4-bis(3"-methylbenzamido)-benzene] | 0.5 | 8 | 1.2 ± 1.6 | 82 | –
CCN(CC)CCNC(=O)c1ccc(NC(=O)c2ccc(C)cc2)cc1NC(=O)c1ccc(C)cc1 [1-[N-(2'-diethylaminoethyl)-carbamoyl]-2,4-bis(4"-methylbenzamido)-benzene] | 1.4 | 26 | 4.0 ± 1.4 | 40 | –
CCN(CC)CCCNC(=O)c1ccc(NC(=O)c2cccc(C)c2)cc1NC(=O)c1cccc(C)c1 [1-[N(3'-diethylaminopropyl)-carbamoyl]-2,4-bis(3"-methylbenzamido)-benzene] | 0 | 12 | 1.0 ± 0.6 | 85 | –
COc1ccccc1C(=O)Nc1ccc(OCCCN(C)C)c(NC(=O)c2ccccc2OC)c1 [1-(3'-dimethylaminopropoxy)-2,4-bis(2"-methoxybenzamido)-benzene trihydrochloride] | 0.5 | 13 | 1.8 ± 2.4 | 71 | –
CCN(CC)CCNC(=O)c1ccc(NC(=O)c2cccc(C)c2)cc1NC(=O)c1cccc(C)c1 [1-[N-(2'-diethylaminoethyl)-carbamoyl]-2,4-bis(3"-methylbenzamido)-benzene] | 1.3 | 27 | 4.0 ± 2.6 | 46 | –
CCN(CC)CCCCOc1ccc(NC(=O)c2ccccc2OC)cc1NC(=O)c1ccccc1OC [1-(4'-diethylaminobutoxy)-2,4-bis(2"methoxybenzamido)-benzene] | 0.8 | 11 | 1.8 ± 1.5 | 71 | –
CCN(CC)CCCOc1ccc(NC(=O)c2ccc(C)cc2)cc1NC(=O)c1ccc(C)cc1 [1-(3'-diethylaminopropoxy)-2,4-bis(4"-methylbenzamido)-benzene] | 1.3 | 17 | 3.0 ± 0.8 | 52 | –
CCN(CC)CCNC(=O)c1cc(NC(=O)c2ccccc2OC)cc(NC(=O)c2ccccc2OC)c1 [1-[N-(2'-diethylaminoethyl)-carbamoyl]-3,5-bis(2"-methoxybenzamido)-benzene hydrochloride] | 3.0 | 13 | 4.3 ± 2.2 | 33 | –
Cc1ccccc1C(=O)Nc1ccc(OCCCCN(C)C)c(NC(=O)c2ccccc2C)c1 [1-(4'-dimethylaminobutoxy)-2,4-bis(2"-methylbenzamido)-benzene] | 0.2 | 6 | 1.0 ± 0.6 | 85 | –
Cc1cccc(C(=O)Nc2ccc(OCCCN(C)C)c(NC(=O)c3cccc(C)c3)c2)c1 [1-(3'-dimethylaminopropoxy)-2,4-bis(3"-methylbenzamido)-benzene] | – | 11 | – | – | LD50 (Acute toxicity in mice; [3]): 38 mg/kg; LD50 (Acute toxicity in mice; [4]): 4700 mg/kg; Percent Death Rate ([2]; 50 mg/kg): 33%; Percent Perforating Ulcers ([2]; 50 mg/kg): 50%; Percent Death Rate ([2]; 100 mg/kg): 0%; Percent Perforating Ulcers ([2]; 100 mg/kg): 0%; Percent Death Rate ([2]; 200 mg/kg): 0%; Percent Perforating Ulcers ([2]; 200 mg/kg): 0%; Percent Inhibition ([2]; 200 mg/kg, 16 hours, ulcer index vs control): 75%; Number of Ulcers/Stomach, up to 3 mm ([1]; 30 mg/kg): 21; Number of Ulcers/Stomach, up to 3 mm ([1]; 45 mg/kg): 9; Number of Ulcers/Stomach, up to 3 mm ([1]; 67 mg/kg): 7
Cc1ccc(C(=O)Nc2ccc(C(=O)NCCCN(C)C)c(NC(=O)c3ccc(C)cc3)c2)cc1 [1-[N-(3'-dimethylaminopropyl)-carbamoyl]-2,4-bis(4"-methylbenzamido)-benzene] | 1.0 | 19 | 3.0 ± 1.4 | 60 | –
CCN(CC)CCCNC(=O)c1ccc(NC(=O)c2ccccc2OC)cc1NC(=O)c1ccccc1OC [1-[N-(3'-diethylaminopropyl)-carbamoyl]-2,4-bis(2"-methoxybenzamido)-benzene] | 0 | 11 | 1.3 ± 0.5 | 80 | –
CCN(CC)CCCOc1ccc(NC(=O)c2ccccc2C)cc1NC(=O)c1ccccc1C [1-(3'-diethylaminopropoxy)-2,4-bis(2"-methylbenzamido)-benzene] | 0 | 6 | 0.5 ± 1.0 | 92 | –
Cc1ccccc1C(=O)Nc1ccc(C(=O)NCCCN(C)C)c(NC(=O)c2ccccc2C)c1 [1-[N-(3'-dimethylaminopropyl)-carbamoyl]-2,4-bis(2"-methylbenzamido)-benzene] | – | 23 | – | – | LD50 (Acute toxicity in mice; [3]): 111 mg/kg; Percent Death Rate ([2]; 200 mg/kg): 0%; Percent Perforating Ulcers ([2]; 200 mg/kg): 0%
CCN(CC)CCCOc1ccc(NC(=O)c2ccccc2OC)cc1NC(=O)c1ccccc1OC [1-(3'-diethylaminopropoxy)-2,4-bis(2"-methoxybenzamido)-benzene] | 0.8 | 8 | 1.5 ± 2.4 | 76 | –
CCN(CC)CCNC(=O)c1ccc(NC(=O)c2ccccc2OC)cc1NC(=O)c1ccccc1OC [1-[N-(2'-diethylaminoethyl)-carbamoyl]-2,4-bis(2"-methoxybenzamido)-benzene hydrochloride] | 1.1 | 12 | 3.8 ± 2.3 | 40 | –
Cc1ccccc1C(=O)Nc1ccc(OCCCN(C)C)c(NC(=O)c2ccccc2C)c1 [1-(3'-dimethylaminopropoxy)-2,4-bis(2"-methylbenzamido)-benzene] | – | 4 | – | – | LD50 (Acute toxicity in mice; [3]): 42 mg/kg; LD50 (Acute toxicity in mice; [4]): 2520 mg/kg; Percent Death Rate ([2]; 50 mg/kg): 20%; Percent Perforating Ulcers ([2]; 50 mg/kg): 20%; Percent Death Rate ([2]; 100 mg/kg): 0%; Percent Perforating Ulcers ([2]; 100 mg/kg): 0%; Percent Death Rate ([2]; 200 mg/kg): 0%; Percent Perforating Ulcers ([2]; 200 mg/kg): 0%; Number of Ulcers/Stomach, up to 3 mm ([1]; 30 mg/kg): 23; Number of Ulcers/Stomach, up to 3 mm ([1]; 45 mg/kg): 17; Number of Ulcers/Stomach, up to 3 mm ([1]; 67 mg/kg): 9
